IC50 data for two molecules are collected here from patent publication US9365546B2, “Substituted pyridinone-pyridinyl compounds” (CONFLUENCE LIFE SCIENCES INC., priority 2010, dated 2016).

Several values for one entry are separate records, joined by “and”; a condition that tells them apart may be missing. Identical values can stand only once.

One assay addresses p38/MK2 (Homo sapiens (Human), UniProt Q16539). Kind of assay: p38α/MK2 cascade assay (phosphorylation of Hsp27 peptide, Caliper LabChip 3000). The conditions noted are these: activated p38α 20 pM, His6-MK2 1 nM, Hsp27 peptide 1 μM, MgATP 10 μM; two values per cell. The format is biochemical. How it is done: P38 Inhibitory Potency and P38/MK2 Substrate Selectivity: The novel, MK2 substrate-selective inhibitory mechanism of compounds is evaluated in enzyme assays comparing inhibitor potency in blocking p38/MK2 versus p38/PRAK induced phosphorylation of an HSP-27 derived peptide substrate. The ability of compounds to inhibit activated phospho-p38α is evaluated using a p38α/MK2 and a p38α/PRAK cascade assay format. […] Activation of MK2 or PRAK by p38α is quantitated by measuring the phosphorylation of a fluorescently-labeled, MK2 specific peptide substrate, Hsp27 peptide ([…]). The phosphorylation of the Hsp27 peptide is quantified using the Caliper LabChip 3000. Kinase reactions is carried out in a 384-well plate (Matrical, MP101-1-PP) in 20 mM HEPES pH 7.5, 10 mM MgCl2, 0.0005% Tween-20, 0.01% BSA, 1 mM DTT, and 2% DMSO. […] The p38α compound inhibitory potency is quantitated from dose-response IC50 values or Ki values from p38α/MK2 cascade assays while the substrate selectivity is calculated as a ratio of p38α/PRAK:p38α/MK2 IC50 values. Species compounds of Formula (I), described hereinabove, evaluated in this assay, are expected to provide a therapeutic benefit in the treatment of p38 kinase mediated diseases, such as autoimmune diseases and lymphoma.

Another assay concerns the target p38/PRAK (Homo sapiens (Human), UniProt Q16539). Kind of assay: p38α/PRAK cascade assay (phosphorylation of Hsp27 peptide, Caliper LabChip 3000). The format is biochemical. The conditions noted are these: activated p38α 20 pM, GST-PRAK 1 nM, Hsp27 peptide 1 μM, MgATP 10 μM; two values per cell. How it is done:
P38 Inhibitory Potency and P38/MK2 Substrate Selectivity: The novel, MK2 substrate-selective inhibitory mechanism of compounds is evaluated in enzyme assays comparing inhibitor potency in blocking p38/MK2 versus p38/PRAK induced phosphorylation of an HSP-27 derived peptide substrate. The ability of compounds to inhibit activated phospho-p38α is evaluated using a p38α/MK2 and a p38α/PRAK cascade assay format. The kinase activity of p38α is determined by its ability to phosphorylate GST-MK2 or GST-PRAK. Activation of MK2 or PRAK by p38α is quantitated by measuring the phosphorylation of a fluorescently-labeled, MK2 specific peptide substrate, Hsp27 peptide ([…]). The phosphorylation of the Hsp27 peptide is quantified using the Caliper LabChip 3000. Kinase reactions is carried out in a 384-well plate (Matrical, MP101-1-PP) in 20 mM HEPES pH 7.5, 10 mM MgCl2, 0.0005% Tween-20, 0.01% BSA, 1 mM DTT, and 2% DMSO. […] The p38α compound inhibitory potency is quantitated from dose-response IC50 values or Ki values from p38α/MK2 cascade assays while the substrate selectivity is calculated as a ratio of p38α/PRAK:p38α/MK2 IC50 values. Species compounds of Formula (I), described hereinabove, evaluated in this assay, are expected to provide a therapeutic benefit in the treatment of p38 kinase mediated diseases, such as autoimmune diseases and lymphoma.

Chain of p38/MK2 (Q16539 whole entry): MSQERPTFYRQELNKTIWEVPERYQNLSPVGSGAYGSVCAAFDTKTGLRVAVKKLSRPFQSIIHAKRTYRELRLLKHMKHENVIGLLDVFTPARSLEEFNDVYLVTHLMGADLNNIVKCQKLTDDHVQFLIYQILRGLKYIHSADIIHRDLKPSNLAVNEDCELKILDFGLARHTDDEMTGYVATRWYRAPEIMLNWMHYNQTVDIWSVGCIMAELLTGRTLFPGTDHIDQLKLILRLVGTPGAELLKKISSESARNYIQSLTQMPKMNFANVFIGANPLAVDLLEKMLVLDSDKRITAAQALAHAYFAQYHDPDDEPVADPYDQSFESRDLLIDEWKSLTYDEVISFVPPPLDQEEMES
Chain of p38/MK2 (P49137 whole entry partner): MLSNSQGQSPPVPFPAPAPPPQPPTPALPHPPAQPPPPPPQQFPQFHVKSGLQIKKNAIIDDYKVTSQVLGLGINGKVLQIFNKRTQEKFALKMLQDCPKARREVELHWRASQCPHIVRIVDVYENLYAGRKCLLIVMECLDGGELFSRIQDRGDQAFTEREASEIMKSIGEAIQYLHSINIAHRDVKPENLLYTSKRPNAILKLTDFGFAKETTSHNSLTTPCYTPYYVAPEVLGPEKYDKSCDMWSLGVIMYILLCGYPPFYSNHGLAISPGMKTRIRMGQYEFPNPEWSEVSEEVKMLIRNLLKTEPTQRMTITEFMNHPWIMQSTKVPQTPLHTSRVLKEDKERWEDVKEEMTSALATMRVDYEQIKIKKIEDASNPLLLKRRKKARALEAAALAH
Chain of p38/PRAK (Q16539 whole entry): as the sequence (Q16539 whole entry) above

For orientation: IC50 means the concentration needed to halve the response being measured. Read a low IC50 as greater potency in that assay. Consider `Cc1cnc(-c2ccnc(C(C)(C)O)n2)cc1-n1c(C)cc(OCc2ccc(F)cc2F)c(Cl)c1=O` [Example 284, 3-chloro-4-((2,4-difluorobenzyl)oxy)-2′-(2-(2-hydroxypropan-2-yl)pyrimidin-4-yl)-5′,6-dimethyl-2H-[1,4′-bipyridin]-2-one], for which the IC50 against p38/MK2 is 6.4 nM and 7.3 nM; on p38/PRAK, 138 nM and 144 nM.

In the case of `Cc1cnc(-c2ccnc(C(C)(C)C)n2)cc1-n1c(C)cc(OCc2ccc(F)cc2F)c(Cl)c1=O` [Example 285, 2′-(2-(tert-butyl)pyrimidin-4-yl)-3-chloro-4-((2,4-difluorobenzyl)oxy)-5′,6-dimethyl-2H-[1,4′-bipyridin]-2-one], the IC50 on p38/MK2 is 18 nM and 26 nM; against p38/PRAK, 121 nM and 210 nM.
